Source: patent US12599660B2, “Therapeutic RNA for HPV-positive cancer” (priority 2020, dated 2026)

Tested on: TC-1 luc tumors
Assay: TC-1 luc tumor model with E7 RNA-LPX and cisplatin chemotherapy: tumor growth and survival
Type: in vivo, C57BL/6 mice
Conditions: 40 μg RNA-LPX day 16, 80 μg cisplatin or PBS i.p. day 22 and 28
Experimental: For therapeutic tumor experiments, C57BL/6 mice were injected with 1×10^5 TC-1 or TC-1 luc tumor cells and 5×10^5 C3 tumor cells subcutaneously into to the right flank. Tumor growth was measured unblinded with a caliper every three to four days and tumor volumes calculated by (a^2 x b)/2 (a, width; b, length). Mice were immunized intravenously with 40 μg E7 or control (OVA) RNA-LPX. Arrows in vaccination schemes indicate immunization. Mice were randomized according to their tumor size prior RNA-LPX immunization. The orthovoltage X-ray source XRAD320 (Precision X-Ray Inc.) was used for tumor irradiation, irradiating tumors locally with different doses at a dose rate of 0.47 Gy/min. Biological effective doses were calculated using the formula
In some experiments, mice received 80 μg cisplatin chemotherapy or PBS intraperitoneal (i.p.) twice after RNA-LPX vaccination.
For Example 9, Statistical analysis was performed with GraphPad PRISM 9. For tumor growth analysis, two-way analysis of variance (ANOVA) was performed and when determined significant (p<0.05), Tukey's multiple comparison test run.

N.N.[Cl][Pt][Cl] [Cisplatin, cis-diamminedichloroplatinum (II)]
tumor growth: only slightly improved tumor growth
